# Entries after “also recorded” stand apart in the source; their conditions may differ. Read-outs that look alike come from different tables or passages of the source.
# What was measured:
# [1] = system: SARS-COV-2 (2019n-COV/USA-WA1/2020); format: in vivo, K18-hACE2 mice; conditions: for reduction of infectious virus recovered from lung tissue: 7 days, Day 7, P<0.001
# [2] = system: SARS-COV-2 Japan/TY7-503/2021-Brazil_P.1 (NR-54982); test: plaque assay of infectious virus released into culture medium, Vero cells; format: cell-based
# [3] = system: SARS-COV-2 Japan/TY7-503/2021-Brazil_P.1 (NR-54982); test: qRT-PCR of viral genome copies released into culture medium, Calu-3 cells; format: cell-based
# [4] = system: SARS-COV-2 Japan/TY7-503/2021-Brazil_P.1 (NR-54982); test: qRT-PCR of viral genome copies released into culture medium, Vero cells; format: cell-based
# [5] = system: six strains of SARS-COV-2; test: qRT-PCR assay, summary over six strains and two cell types; format: cell-based
# [6] = system: SARS-COV-2 US-WA1/2020 (NR-52281); test: qRT-PCR of viral genome copies released into culture medium, Vero cells; format: cell-based
# [7] = system: SARS-COV-2 US-WA1/2020 (NR-52281); test: qRT-PCR of viral genome copies released into culture medium, Calu-3 cells; format: cell-based
# [8] = system: SARS-COV-2 Japan/TY7-503/2021-Brazil_P.1 (NR-54982); test: plaque assay of infectious virus released into culture medium, Calu-3 cells; format: cell-based
# [9] = system: SARS-COV-2 (2019n-COV/USA-WA1/2020); format: in vivo, K18-hACE2 mice; conditions: for reduction of viral load in lung: 7 days, Day 7
# [10] = system: IL-6; IL-1a; IL-1B; TNFα; TGFβ; MCP-1; format: in vivo, K18-hACE2 mice; conditions: 7 days post infection
# [11] = system: SARS-COV-2 (2019n-COV/USA-WA1/2020); format: in vivo, K18-hACE2 mice
# [12] = system: six strains of SARS-COV-2; test: plaque assay, summary over six strains and two cell types; format: cell-based
# [13] = system: SARS-COV-2 US-WA1/2020 (NR-52281); test: plaque assay of infectious virus released into culture medium, Vero cells; format: cell-based
# [14] = system: SARS-COV-2 US-WA1/2020 (NR-52281); test: plaque assay of infectious virus released into culture medium, Calu-3 cells; format: cell-based
# [15] = 300 mg/kg twice daily, day 5 (Experiment 3) or Day 12 (Experiment 2), 11 mice
# [16] = Experiment 1, 100 mg/kg or 300 mg/kg for 7 days, vs vehicle
# [17] = Severe acute respiratory syndrome coronavirus 2, virus BR, m.o.i 0.1, BIT225 added 1 hour pre-infection, 4 days post infection
# [18] = virus BR, log-logistic curve fit
# [19] = Severe acute respiratory syndrome coronavirus 2, virus WA1, m.o.i 0.1, BIT225 added 1 hour pre-infection, 4 days post infection
# [20] = virus WA1, log-logistic curve fit
# [21] = Severe acute respiratory syndrome coronavirus 2, m.o.i 0.1, BIT225 added 1 hour pre-infection, 4 days post infection
smiles,measurement,setting,value
"Cn1cc(-c2cccc3cc(C(=O)NC(=N)N)ccc23)cn1 [BIT225, N-carbamimidoyl-5-(1-methyl-1H-pyrazol-4-yl)-2-naphthamide]",lung plaque counts,[1]; [15],< 200 mL⁻¹
same,infectious virus in serum,[1]; [16],significant reductions
same,reduction of infectious virus recovered from lung tissue,"[1]; Experiment 1, 100 mg/kg twice daily",approximately 2000 PFU/mL
same,reduction of infectious virus recovered from lung tissue,"[1]; Experiment 1, 300 mg/kg twice daily",~4000 PFU/mL
same,EC50,[2]; [17],6.36 µM
same,Max. Response (d),[2]; [18],6.39 log10
same,Slope (b),[2]; [18],1.67
same,EC50,[3]; [17],4.64 µM
same,Max. Response (d),[3]; [18],2.53 log10
same,Slope (b),[3]; [18],1.12
same,EC50,[4]; [17],4.03 µM
same,Max. Response (d),[4]; [18],3.53 log10
same,Slope (b),[4]; [18],1.13
same,EC50,"[5]; Severe acute respiratory syndrome coronavirus 2, read-out: EC50 estimates, range",2.5 to 4.8 µM
same,EC50,"[5]; Severe acute respiratory syndrome coronavirus 2, qRT-PCR assay, mean over six strains and two cell types, read-out: EC50, mean",3.7 µM
same,EC50,[6]; [19],2.53 µM
same,Max. Response (d),[6]; [20],3.29 log10
same,Slope (b),[6]; [20],1.79
same,EC50,[7]; [19],2.55 µM
same,Max. Response (d),[7]; [20],2.41 log10
same,Slope (b),[7]; [20],1.38
same,EC50,[8]; [17],5.79 µM
same,Max. Response (d),[8]; [18],3.39 log10
same,Slope (b),[8]; [18],1.36
same,lung viral loads (qRT-PCR),[9]; [15],at or below the limits of detection
same,viral load in serum,[9]; [16],significant reductions
same,reduction of viral load in lung,"[9]; Experiment 1, 100 mg/kg twice daily, vs vehicle, P<0.001",approximately 2 log 10
same,reduction of viral load in lung,"[9]; Experiment 1, 300 mg/kg twice daily, vs vehicle",approximately 3.5 log 10
same,"IL-6 level, statistically significant (P<0.05) lower than vehicle control",[10]; 100 mg/kg dose group,exception
same,mean and median cytokine concentrations relative to vehicle control group,[10]; high-dose BIT225 group (300 mg/kg),less than half
same,"end-of-treatment levels of IL-6, IL-1a, IL-1B, TNFα, TGFβ and MCP-1","[10]; lung and serum, 100 or 300 mg/kg twice daily, vs vehicle control",reduced
same,survival to day 5 (Experiment 3) or Day 12 (Experiment 2),"[11]; 11 mice, 300 mg/kg twice daily",all survived
same,difference in body weight changes between the two BIT225 dosing levels,"[11]; Experiment 1, 100 mg/kg vs 300 mg/kg twice daily, 7 days",no significant difference
same,"difference between group-mean body weight changes, vehicle lower than combined BIT225 groups","[11]; Experiment 1, day 5, P=0.01",3.8%
same,"difference between group-mean body weight changes, vehicle lower than combined BIT225 groups","[11]; Experiment 1, day 6, P=0.001",6.4%
same,mice with body weights greater than their pre-infection weights,"[11]; Experiment 1, day 7, 100 mg/kg or 300 mg/kg twice daily",all 10
same,"difference between group-mean body weight changes, vehicle lower than combined BIT225 groups","[11]; Experiment 1, day 7, 95% CI [5.6-10.7], P=0.001",8.1%
same,survival and weight gain to day 12,"[11]; Experiment 2, 300 mg/kg twice daily for 12 days, n=7, all vehicle mice died by day 9, P<0.001 log-rank, 300 mg/kg",all mice survived and continued to gain weight; also recorded: all seven mice in the BIT225 group survived
same,health and weight change to Day 5,"[11]; Experiment 3, 300 mg/kg twice daily, 5 days, n=4",remained healthy and gained weight to Day 5
same,"survival, health and weight gain through day 12","[11]; Experiment 4, 300 mg/kg twice daily starting 24 h post-infection, n=5, 300 mg/kg",remained healthy and continued gain weight as per age expectations through to day 12; also recorded: survived to Day 12
same,"survival, health and weight gain through day 12","[11]; Experiment 4, 300 mg/kg twice daily starting 24 h pre-infection, n=5, 300 mg/kg",remained healthy and continued gain weight as per age expectations through to day 12; also recorded: survived to Day 12
same,mice that died (day 11),"[11]; Experiment 4, 300 mg/kg twice daily starting 48 h post-infection, n=5, 300 mg/kg",One of the five; also recorded: one mouse
same,mice that continued to gain body weight,"[11]; across three experiments, 12 hourly oral doses of BIT225 (100 or 300 mg/kg), intranasal",21 out of 21
same,EC50,"[12]; Severe acute respiratory syndrome coronavirus 2, read-out: EC50, range",3.4 to 7.9 µM
same,EC50,"[12]; Severe acute respiratory syndrome coronavirus 2, plaque assay, mean over six strains and two cell types, read-out: EC50, mean",6.2 µM
same,EC50,[13]; [21],4.09 µM
same,Max. Response (d),[13]; log-logistic curve fit,6.40 log10
same,Slope (b),[13]; log-logistic curve fit,1.45
same,EC50,[14]; [21],3.43 µM
same,Max. Response (d),[14]; log-logistic curve fit,3.38 log10
same,Slope (b),[14]; log-logistic curve fit,1.31

# Source: patent publication US20250009713A1 (priority 2021, published 2025)
